Results on 34 compounds are retold here after patent US7981893B2, “Heteroaryl compounds, compositions thereof, and methods of treatment therewith” (Signal Pharmaceuticals, LLC, priority 2006, dated 2011).

The structures appear in SMILES notation.

As a reminder, the melting point is the temperature, or range, at which the solid turns liquid.

`NC(=O)c1ccc(-c2cnc3[nH]c(=O)n(CC4CCOCC4)c3n2)cc1` [Compound 143, 4-(2-oxo-3-((Tetrahydro-2H-pyran-4-yl)methyl)-2,3-dihydro-1H-imidazo[4,5-b]pyrazin-5-yl)benzamide] displayed a melting point of 273 to 275 °C.
In turn, `CC(C)(O)c1ccc(-c2cnc3[nH]c(=O)n(CC4CCOCC4)c3n2)cc1` [Compound 145, 6-(4-(2-Hydroxypropan-2-yl)phenyl)-1-((tetrahydro-2H-pyran-4-yl)methyl)-1H-imidazo[4,5-b]pyrazin-2(3H)-one] had a melting point of 212 to 214 °C.
Next, `O=c1[nH]c2ncc(-c3ccc4[nH]ccc4c3)nc2n1CC1CCOCC1` [Compound 146, 6-(1H-Indol-5-yl)-1-((tetrahydro-2H-pyran-4-yl)methyl)-1H-imidazo[4,5-b]pyrazin-2(3H)-one]: 305 to 308 °C.
Compound `O=c1[nH]c2ncc(-c3ccc4[nH]cnc4c3)nc2n1CC1CCCCC1` [Compound 148, 6-(1H-Benzo[d]imidazol-5-yl)-1-(cyclohexylmethyl)-1H-imidazo[4,5-b]pyrazin-2(3H)-one] registered a melting point of 217 to 220 °C.
For `NC(=O)c1ccc(-c2cnc3[nH]c(=O)n(CCC4CCOCC4)c3n2)cc1` [Compound 149, 4-(2-oxo-3-(2-(Tetrahydro-2H-pyran-4-yl)ethyl)-2,3-dihydro-1H-imidazo[4,5-b]pyrazin-5-yl)benzamide], the melting point was 233 to 236 °C.
Compound `O=c1[nH]c2ncc(-c3cccc(-c4cn[nH]n4)c3)nc2n1CC1CCCCC1` [Compound 150, 6-(3-(2H-1,2,3-Triazol-4-yl)phenyl)-1-(cyclohexylmethyl)-1H-imidazo[4,5-b]pyrazin-2(3H)-one] showed a melting point of 299 to 301 °C.
Next, `O=c1[nH]c2ncc(-c3ccc(-n4ccnc4)cc3)nc2n1CC1CCCCC1` [Compound 151, 6-(4-(1H-Imidazol-1-yl)phenyl)-1-(cyclohexylmethyl)-1H-imidazo[4,5-b]pyrazin-2(3H)-one]: 284 to 287 °C; `O=c1[nH]c2ncc(-c3ccnc(O)c3)nc2n1CC1CCCCC1` [Compound 154, 1-(Cyclohexylmethyl)-6-(2-hydroxypyridin-4-yl)-1H-imidazo[4,5-b]pyrazin-2(3H)-one]: 311 to 313 °C; `O=c1[nH]c2ncc(-c3ccc(-c4ncc[nH]4)cc3)nc2n1CC1CCCCC1` [Compound 156, 6-(4-(1H-Imidazol-2-yl)phenyl)-1-(cyclohexylmethyl)-1H-imidazo[4,5-b]pyrazin-2(3H)-one]: 349 to 351 °C.
As for `O=c1[nH]c2ncc(-c3ccc(-n4ccnn4)cc3)nc2n1CC1CCCCC1` [Compound 157, 6-(4-(1H-1,2,3-Triazol-1-yl)phenyl)-1-(cyclohexylmethyl)-1H-imidazo[4,5-b]pyrazin-2(3H)-one], the figure is 276 to 278 °C.
Turning to `Cc1nc(-c2ccc(-c3cnc4[nH]c(=O)n(CC5CCCCC5)c4n3)cc2)n[nH]1` [Compound 159, 1-(Cyclohexylmethyl)-6-(4-(5-methyl-1H-1,2,4-triazol-3-yl)phenyl)-1H-imidazo[4,5-b]pyrazin-2(3H)-one], the melting point is 315 to 318 °C.
In the case of `O=c1[nH]c2ncc(-c3ccc(-c4cc[nH]n4)cc3)nc2n1CC1CCCCC1` [Compound 160, 6-(4-(1H-Pyrazol-3-yl)phenyl)-1-(cyclohexylmethyl)-1H-imidazo[4,5-b]pyrazin-2(3H)-one], the melting point is 292 to 294 °C.
As for `O=c1[nH]c2ncc(-c3ccc(-c4cn[nH]c4)cc3)nc2n1CC1CCCCC1` [Compound 161, 6-(4-(1H-Pyrazol-4-yl)phenyl)-1-(cyclohexylmethyl)-1H-imidazo[4,5-b]pyrazin-2(3H)-one], the figure is 305 to 307 °C.
On to `O=c1[nH]c2ncc(-c3ccc(-c4n[nH]c(C(F)(F)F)n4)cc3)nc2n1CC1CCCCC1` [Compound 163, 1-(Cyclohexylmethyl)-6-(4-(5-(trifluoromethyl)-1H-1,2,4-triazol-3-yl)phenyl)-1H-imidazo[4,5-b]pyrazin-2(3H)-one], for which the melting point was 303 to 305 °C.
Compound `O=c1[nH]c2ncc(-c3ccc(O)cc3)nc2n1CC1CCCO1` (stereo not shown) [Compound 165, 6-(4-Hydroxyphenyl)-1-((tetrahydrofuran-2-yl)methyl)-1H-imidazo[4,5-b]pyrazin-2(3H)-one] came in with a melting point of 256 to 258 °C.
With `O=c1[nH]c2ncc(-c3cccc(-c4nc[nH]n4)c3)nc2n1CC1CCCCC1` [Compound 166, 6-(3-(1H-1,2,4-Triazol-3-yl)phenyl)-1-(cyclohexylmethyl)-1H-imidazo[4,5-b]pyrazin-2(3H)-one], the melting point lay within 305 to 307 °C.
For the compound `Cn1cc(-c2cnc3[nH]c(=O)n(CC4CCOCC4)c3n2)cn1` [Compound 170, 6-(1-Methyl-1H-pyrazol-4-yl)-1-((tetrahydro-2H-pyran-4-yl)methyl)-1H-imidazo[4,5-b]pyrazin-2(3H)-one], the melting point lay in the range of 224 to 226 °C.
For the compound `O=c1[nH]c2ncc(-c3ccc(O)cc3)nc2n1CC1CCOC1` (stereo not shown) [Compound 172, 6-(4-Hydroxyphenyl)-1-((tetrahydrofuran-3-yl)methyl)-1H-imidazo[4,5-b]pyrazin-2(3H)-one], the melting point is 256 to 258 °C.
Turning to `O=c1[nH]c2ncc(-c3ccc(-c4n[nH]c(CN5CCOCC5)n4)cc3)nc2n1CC1CCOCC1` [Compound 175, 6-(4-(5-(Morpholinomethyl)-1H-1,2,4-triazol-3-yl)phenyl)-1-((tetrahydro-2H-pyran-4-yl)methyl)-1H-imidazo[4,5-b]pyrazin-2(3H)-one], the melting point was in the range of 281 to 283 °C.
`O=C1CCCN1CCCn1c(=O)[nH]c2ncc(-c3ccc(O)cc3)nc21` [Compound 176, 6-(4-Hydroxyphenyl)-1-(3-(2-oxopyrrolidin-1-yl)propyl)-1H-imidazo[4,5-b]pyrazin-2(3H)-one] showed a melting point of 305 to 306 °C.
For the compound `COCc1nc(-c2ccc(-c3cnc4[nH]c(=O)n(CC5CCOCC5)c4n3)cc2)n[nH]1` [Compound 180, 6-(4-(5-(Methoxymethyl)-1H-1,2,4-triazol-3-yl)phenyl)-1-((tetrahydro-2H-pyran-4-yl)methyl)-1H-imidazo[4,5-b]pyrazin-2(3H)-one], the melting point lay in the range of 273 to 276 °C.
As to `Cc1n[nH]cc1-c1cnc2[nH]c(=O)n(CC3CCOCC3)c2n1` [Compound 182, 6-(3-Methyl-1H-pyrazol-4-yl)-1-((tetrahydro-2H-pyran-4-yl)methyl)-1H-imidazo[4,5-b]pyrazin-2(3H)-one], the melting point was in the range of 222 to 224 °C.
Regarding `O=c1[nH]c2ncc(-c3cn[nH]c3)nc2n1CC1CCOCC1` [Compound 183, 6-(1H-Pyrazol-4-yl)-1-((tetrahydro-2H-pyran-4-yl)methyl)-1H-imidazo[4,5-b]pyrazin-2(3H)-one], the melting point lay within 238 to 240 °C.
As for `CC(C)(O)c1nc(-c2ccc(-c3cnc4[nH]c(=O)n(CC5CCOCC5)c4n3)cc2)n[nH]1` [Compound 185, 6-(4-(5-(2-Hydroxypropan-2-yl)-1H-1,2,4-triazol-3-yl)phenyl)-1-((tetrahydro-2H-pyran-4-yl)methyl)-1H-imidazo[4,5-b]pyrazin-2(3H)-one], the figure is 249 to 253 °C; as for `CC(C)c1nc(-c2ccc(-c3cnc4[nH]c(=O)n(CC5CCOCC5)c4n3)cc2)n[nH]1` [Compound 186, 6-(4-(5-Isopropyl-1H-1,2,4-triazol-3-yl)phenyl)-1-((tetrahydro-2H-pyran-4-yl)methyl)-1H-imidazo[4,5-b]pyrazin-2(3H)-one], 305 to 308 °C; as for `O=c1[nH]c2ncc(-c3cnc4[nH]cnc4c3)nc2n1CC1CCOCC1` [Compound 190, 6-(3H-imidazo[4,5-b]pyridin-6-yl)-1-((tetrahydro-2H-pyran-4-yl)methyl)-1H-imidazo[4,5-b]pyrazin-2(3H)-one], 367 to 370 °C.
Next, `O=c1[nH]c2ncc(-c3ccc(-n4cccn4)cc3)nc2n1CC1CCOCC1` [Compound 192, 6-(4-(1H-Pyrazol-1-yl)phenyl)-1-((tetrahydro-2H-pyran-4-yl)methyl)-1H-imidazo[4,5-b]pyrazin-2(3H)-one]: 294 to 296 °C; `O=c1[nH]c2ncc(-c3ccc(-c4nnc[nH]4)cc3)nc2n1CCN1CCOCC1` [Compound 193, 6-(4-(4H-1,2,4-Triazol-3-yl)phenyl)-1-(2-morpholinoethyl)-1H-imidazo[4,5-b]pyrazin-2(3H)-one]: 295 to 297 °C; `O=c1[nH]c2ncc(-c3ccc(-c4nc5ccccc5[nH]4)cc3)nc2n1CC1CCOCC1` [Compound 194, 6-(4-(1H-Benzo[d]imidazol-2-yl)phenyl)-1-((tetrahydro-2H-pyran-4-yl)methyl)-1H-imidazo[4,5-b]pyrazin-2(3H)-one]: greater than 300 °C.
Take `O=c1[nH]c2ncc(-c3ccc(-c4n[nH]c(CO)n4)cc3)nc2n1CC1CCOCC1` [Compound 196, 6-(4-(5-(Hydroxymethyl)-1H-1,2,4-triazol-3-yl)phenyl)-1-((tetrahydro-2H-pyran-4-yl)methyl)-1H-imidazo[4,5-b]pyrazin-2(3H)-one]: the melting point lay within 258 to 260 °C.
With `O=C1CCC(Cn2c(=O)[nH]c3ncc(-c4ccc(O)cc4)nc32)N1` (stereo not shown) [Compound 198, 6-(4-Hydroxyphenyl)-1-((5-oxopyrrolidin-2-yl)methyl)-1H-imidazo[4,5-b]pyrazin-2(3H)-one], the melting point is 338 to 340 °C.
For the compound `Cc1nc(-c2ccc(-c3cnc4[nH]c(=O)n(CC5CCOCC5)c4n3)cc2)[nH]c1C` [Compound 199, 6-(4-(4,5-Dimethyl-1H-imidazol-2-yl)phenyl)-1-((tetrahydro-2H-pyran-4-yl)methyl)-1H-imidazo[4,5-b]pyrazin-2(3H)-one], the melting point was 250 to 254 °C (dec.).
With `O=c1[nH]c2ncc(-c3ccc(-c4nc[nH]n4)nc3)nc2n1CC1CCOCC1` [Compound 202, 6-(6-(1H-1,2,4-Triazol-3-yl)pyridin-3-yl)-1-((tetrahydro-2H-pyran-4-yl)methyl)-1H-imidazo[4,5-b]pyrazin-2(3H)-one], the melting point fell in the range of 353 to 356 °C.
`O=C1CCCN1CCn1c(=O)[nH]c2ncc(-c3ccc(-c4nc[nH]n4)cc3)nc21` [Compound 203, 6-(4-(1H-1,2,4-Triazol-3-yl)phenyl)-1-(2-(2-oxopyrrolidin-1-yl)ethyl)-1H-imidazo[4,5-b]pyrazin-2(3H)-one] registered a melting point of 300 to 301 °C.
